# Patent US9932349B2 (priority 2000, dated 2018)
# Like-named read-outs stand apart in the source and are kept apart here.
# Assays:
# δ opioid receptor = target: T1, δ opioid receptor (Cavia porcellus, UniProt A0A286XTF2); assay: biochemical; type: binding, guinea pig
# T1 construct: determined in guinea pig brain cells; from tissue; host or cells: guinea pig brain
# κ opioid receptor = target: T2, κ opioid receptor (Cavia porcellus, UniProt P41144); assay: biochemical; type: binding, guinea pig
# T2 construct: determined in guinea pig brain cells; from tissue; host or cells: guinea pig brain
# T2 sequence (P41144 whole entry): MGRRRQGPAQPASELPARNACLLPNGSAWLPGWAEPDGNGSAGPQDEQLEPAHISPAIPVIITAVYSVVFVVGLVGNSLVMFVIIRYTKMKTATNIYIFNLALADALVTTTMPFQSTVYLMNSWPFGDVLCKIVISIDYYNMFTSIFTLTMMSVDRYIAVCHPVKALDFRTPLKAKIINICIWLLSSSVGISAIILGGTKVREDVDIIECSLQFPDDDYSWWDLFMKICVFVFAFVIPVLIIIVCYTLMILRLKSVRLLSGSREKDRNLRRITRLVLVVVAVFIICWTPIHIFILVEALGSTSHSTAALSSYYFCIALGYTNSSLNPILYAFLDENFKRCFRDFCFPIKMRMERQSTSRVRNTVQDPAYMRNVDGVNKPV
# T1 sequence (A0A286XTF2 1-366): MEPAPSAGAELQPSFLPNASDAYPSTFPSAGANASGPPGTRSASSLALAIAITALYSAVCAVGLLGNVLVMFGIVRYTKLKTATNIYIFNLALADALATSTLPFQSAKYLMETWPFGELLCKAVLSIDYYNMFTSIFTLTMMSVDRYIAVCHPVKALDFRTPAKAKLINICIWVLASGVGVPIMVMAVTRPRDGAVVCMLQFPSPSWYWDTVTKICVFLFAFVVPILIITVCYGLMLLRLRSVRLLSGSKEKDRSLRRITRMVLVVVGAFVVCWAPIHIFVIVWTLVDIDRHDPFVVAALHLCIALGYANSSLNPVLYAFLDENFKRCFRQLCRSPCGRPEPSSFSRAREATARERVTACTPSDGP
Compound,Ki (δ opioid receptor; Ki [3H] Naltrindole (δ)) [nM],"Ki (κ opioid receptor; Ki [3H] U69,593 (κ)) [nM]",other results
"CC1C2Cc3ccc(CN)cc3C1(C)CCN2CC1CC1 (mixture of isomers) [Example 15, (±)-[3-(Cyclopropylmethyl)-1,2,3,4,5,6,-hexahydro-cis-6,11-dimethyl-2,6-methano-3-benzazocin-8-yl]-methylamine]",390 ± 47,17 ± 2.9,–
"CC1C2Cc3ccc(NC=O)cc3C1(C)CCN2CC1CC1 (mixture of isomers) [Example 19, (±)-N-[3-(Cyclopropylmethyl)-1,2,3,4,5,6,-hexahydro-cis-6,11-dimethyl-2,6-methano-3-benzazocin-8-yl]-formamide]",–,–,"Ki (δ opioid receptor; read-out: Ki [3H] Naltrindole (δ)): 37 ± 3.9 nM; Ki (κ opioid receptor; read-out: Ki [3H] U69,593 (κ)): 0.85 ± 0.08 nM"
"CC[C@@]12CCN(CC3CC3)C(C(=O)c3ccc(O)cc31)C2C (mixture of isomers) [(±)-EKC, Ethylketocyclazocine, reference compound]",–,–,Ki (δ opioid receptor; [3H] Naltrindole (δ)): 3.4 ± 0.41 nM
"C[C@H]1C2Cc3ccc(C#N)cc3[C@@]1(C)CCN2CC1CC1 (racemic) [Example 1, (±)-3-(Cyclopropylmethyl)-1,2,3,4,5,6-hexahydro-cis-6,11-dimethyl-2,6-methano-3-benzazocin-8-carbonitrile]",2700 ± 1400,71 ± 13,–
C[C@H]1[C@H]2Cc3ccc(C(=O)O)cc3[C@]1(C)CCN2CC1CC1 (racemic) [Example 2],320 ± 14,31 ± 0.87,–
"COC(=O)c1ccc2c(c1)[C@@]1(C)CCN(CC3CC3)C(C2)[C@@H]1C (racemic) [Example 3, (±)-3-(Cyclopropylmethyl)-1,2,3,4,5,6,-hexahydro-cis-6,11-dimethyl-2,6-methano-3-benzazocin-8-carboxylic acid methyl ester]",59 ± 2.1,2 ± 0.21,–
"C[C@H]1C2Cc3ccc(C(N)=S)cc3[C@@]1(C)CCN2CC1CC1 (racemic) [Example 5, (±)-3-(Cyclopropylmethyl)-1,2,3,4,5,6-hexahydro-cis-6,11-dimethyl-2,6-methano-3-benzazocin-8-thiocarboxamide]",4 ± 0.48,0.67 ± 0.01,–
C[C@H]1[C@H]2Cc3ccc(C(=O)NO)cc3[C@]1(C)CCN2CC1CC1 (racemic) [Example 6],210 ± 40,6.9 ± 0.61,–
COc1ccc(CNC(=O)c2ccc3c(c2)[C@]2(C)CCN(CC4CC4)[C@H](C3)[C@@H]2C)cc1 (racemic) [Example 10],150 ± 17,110 ± 3.1,–
C[C@H]1[C@H]2Cc3ccc(C(=O)NCCCN(C)C)cc3[C@]1(C)CCN2CC1CC1 (racemic) [Example 12],3000 ± 230,310 ± 64,–
"CC1[C@@H]2Cc3ccc(C(=N)NO)cc3[C@@]1(C)CCN2CC1CC1 (mixture of isomers) [Example 14, (±)-3-(Cyclopropylmethyl)-1,2,3,4,5,6-hexahydro-N-hydroxy-cis-6,11-dimethyl-2,6-methano-3-benzazocin-8-carboxamidine]",16 ± 0.67,0.9 ± 0.15,–
"C[C@H]1C2Cc3ccc(CO)cc3[C@@]1(C)CCN2CC1CC1 (racemic) [Example 16, (±)-[3-(Cyclopropylmethyl)-1,2,3,4,5,6,-hexahydro-cis-6,11-dimethyl-2,6-methano-3-benzazocin-8-yl]-methanol]",210 ± 29,7.6 ± 0.8,–
C[C@H]1[C@H]2Cc3ccc(NS(C)(=O)=O)cc3[C@]1(C)CCN2CC1CC1 (racemic) [Example 21],780 ± 170,21 ± 1.5,–
C[C@H]1[C@H]2C(=O)c3ccc(C(N)=O)cc3[C@]1(C)CCN2CC1CC1 (relative stereo) [Example 23],–,–,"Ki (δ opioid receptor; [3H] Naltrindole (δ)): 20 ± 2.3 nM; Ki (κ opioid receptor; [3H] U69,593 (κ)): 1.8 ± 0.1 nM"
"CC1C2Cc3ccc(C(N)=O)cc3C1(C)CCN2CC1CC1 (single isomer, unassigned) [Example 4a]",2.6 ± 0.6,–,–
"CC1C2Cc3ccc(C(N)=O)cc3C1(C)CCN2CC1CC1 (single isomer, unassigned) [Example 4b]",570 ± 50,–,–
"CC1C2Cc3ccc(NC=O)cc3C1(C)CCN2CC1CC1 (single isomer, unassigned) [Example 19a]",9.8 ± 0.28,0.49 ± 0.012,–
"CC1C2Cc3ccc(NC=O)cc3C1(C)CCN2CC1CC1 (single isomer, unassigned) [Example 19b]",> 10000,900 ± 8.7,–
"CC1C2Cc3ccc(O)cc3C1(C)CCN2CC1CCCO1 (single isomer, unassigned) [Example 25, reference compound]",–,–,"Ki (δ opioid receptor; [3H] Naltrindole (δ)): 3.6 ± 0.4 nM; Ki (κ opioid receptor; [3H] U69,593 (κ)): 0.09 ± 0.01 nM"

Compound,Ki (δ opioid receptor; Ki [3H] Naltrindole (δ)) [nM],"Ki (κ opioid receptor; Ki [3H] U69,593 (κ)) [nM]",other results
"CC1C2Cc3ccc(C(N)=O)cc3C1(C)CCN2CC1CCCO1 (single isomer, unassigned) [Example 26]",–,–,"Ki (δ opioid receptor; [3H] Naltrindole (δ)): 2 ± 0.15 nM; Ki (κ opioid receptor; [3H] U69,593 (κ)): 0.089 ± 0.004 nM"
"CC1C2Cc3ccc(O)cc3C1(C)CCN2CC1CCCO1 (single isomer, unassigned) [Example 27, reference compound]",–,–,"Ki (δ opioid receptor; [3H] Naltrindole (δ)): 67 ± 4.3 nM; Ki (κ opioid receptor; [3H] U69,593 (κ)): 1.5 ± 0.07 nM"
"CC1C2Cc3ccc(C(N)=O)cc3C1(C)CCN2CC1CCCO1 (single isomer, unassigned) [Example 28]",–,–,"Ki (δ opioid receptor; [3H] Naltrindole (δ)): 34 ± 0.1 nM; Ki (κ opioid receptor; [3H] U69,593 (κ)): 2.8 ± 0.24 nM"
"C[C@H]1[C@H]2Cc3ccc(O)cc3[C@]1(C)CCN2CC1CC1 [(+)-Cyclazocine, Cyclazocine, reference compound]",–,–,"Ki (δ opioid receptor; read-out: [3H] Naltrindole (δ)): 1100 ± 63 nM; Ki (κ opioid receptor; read-out: [3H]U69,593 (κ)): 76 ± 8.2 nM"
"C[C@H]1[C@H]2Cc3ccc(O)cc3[C@]1(C)CCN2CC1CC1 [(−)-Cyclazocine, Cyclazocine, reference compound]",–,–,"Ki (δ opioid receptor; read-out: [3H] Naltrindole (δ)): 0.58 ± 0.06 nM; Ki (κ opioid receptor; read-out: [3H]U69,593 (κ)): 0.052 ± 0.009 nM"
CC1C2Cc3ccc(C(=O)NN)cc3C1(C)CCN2CC1CC1 (stereo not drawn) [Example 7],–,19 ± 1.4,–
CNC(=O)c1ccc2c(c1)C1(C)CCN(CC3CC3)C(C2)C1C (stereo not drawn) [Example 8],63 ± 4.1,2.6 ± 0.19,–
CC1C2Cc3ccc(C(=O)NCc4ccccc4)cc3C1(C)CCN2CC1CC1 (stereo not drawn) [Example 9],140 ± 18,78 ± 7.6,–
CC1C2Cc3ccc(C(=O)NCCN(C)C)cc3C1(C)CCN2CC1CC1 (stereo not drawn) [Example 11],350 ± 51,44 ± 11,–
CC1C2Cc3ccc(C4=NCCN4)cc3C1(C)CCN2CC1CC1 (stereo not drawn) [Example 13],55 ± 5.1,11 ± 0.69,–
CC1C2Cc3ccc(C(=O)c4ccccc4)cc3C1(C)CCN2CC1CC1 (stereo not drawn) [Example 17],490 ± 43,19 ± 2.6,–
CC1C2Cc3ccc(C(=NO)c4ccccc4)cc3C1(C)CCN2CC1CC1 (stereo not drawn) [Example 18],180 ± 15,7.2 ± 0.4,–
CC1C2Cc3ccc(NC=S)cc3C1(C)CCN2CC1CC1 (stereo not drawn) [Example 20],16 ± 0.3,0.63 ± 0.15,–
CC1C2C(=O)c3ccc(C#N)cc3C1(C)CCN2CC1CC1 (stereo not drawn) [Example 22],–,–,"Ki (δ opioid receptor; [3H] Naltrindole (δ)): 3400 ± 410 nM; Ki (κ opioid receptor; [3H] U69,593 (κ)): 59 ± 0.77 nM"
CCC12CCN(CC3CC3)C(C(=O)c3ccc(C(N)=O)cc31)C2C (stereo not drawn) [Example 24],–,–,"Ki (δ opioid receptor; read-out: [3H] Naltrindole (δ)): 9.8 ± 0.5 nM; Ki (κ opioid receptor; read-out: [3H] U69,593 (κ)): 0.7 ± 0.08 nM"
C[C@H]1[C@H]2Cc3ccc(CN)cc3[C@]1(C)CCN2C[C@@H]1CCCO1 [Example 29],–,–,"Ki (δ opioid receptor; [3H] Naltrindole (δ)): 300 ± 27 nM; Ki (κ opioid receptor; [3H] U69,593 (κ)): 18 ± 1.9 nM"
CCC12CCN(CC3CC3)C(C(=O)c3ccc(NC=O)cc31)C2C (stereo not drawn) [Example 40],–,–,"Ki (δ opioid receptor; read-out: [3H] Naltrindole (δ)): 52 ± 3.4 nM; Ki (κ opioid receptor; read-out: [3H] U69,593 (κ)): 1.2 ± 0.11 nM"
"Oc1ccc2c3c1O[C@H]1c4[nH]c5ccccc5c4C[C@@]4(O)[C@@H](C2)N(CC2CC2)CC[C@]314 [naltrindole (3-OH), Naltrindole, reference compound]",–,–,"Ki (κ opioid receptor; [3H] U69,593 (κ)): 4.6 ± 0.23 nM"
